Results on 10 compounds are retold here after patent US20100075979A1, “PYRIDINYLPIPERAZIN DERIVATIVES USEFUL AS MODULATORS OF DOPAMINE D3 RECEPTORS” (priority 2008, published 2010).

As usually defined, the pKi is the negative decadic logarithm of the Ki, by convention in mol/L.

The target in this assay is T1, human D3 dopamine receptor (Homo sapiens, UniProt P35462).
T1 construct: expressed in transfected cells; host or cells: HEK-293 EBNA cells (transient transfection; membrane preparation)
The assay is described as follows: Radioligand binding assay ([3H]-spiperone) on membranes of HEK-293 EBNA cells expressing human D3 receptor. To be noted: [3H]-spiperone approx. 0.5 nM, 1 h at RT, cloned human D3 in HEK-293 EBNA membranes; Ki by Cheng-Prusoff. The procedure: The ability of the compounds to bind to the D3 receptors was determined using radioligand binding to cloned receptors selectively expressed in HEK-293 EBNA cells.
HEK-293 EBNA cells were transiently transfected with expression plasmids encoding for the human D3 dopamine receptor. The cells were harvested 48 h post-transfection, washed three times with cold PBS and stored at −80° C. prior to use. The pellet was suspended in cold 50 mM
Tris-HCl buffer containing 10 mM EDTA (pH 7.4) and homogenized with a Polytron (Kinematica AG, Basel, Switzerland) for 20-30 sec at 12.000 rpm. After centrifugation at 48.000×g for 30 min at 4° C., the pellet was resuspended in cold 10 mM Tris-HCl buffer containing 0.1 mM EDTA (pH 7.4), homogenized, and centrifuged as above. This pellet was further resuspended in a smaller volume of ice cold 10 mM Tris-HCl buffer containing 0.1 mM EDTA (pH 7.4) and homogenized with a Polytron for 20-30 sec at 12.000 rpm. The protein content of this homogenate was determined with the Bio-Rad (Bradford) Protein Assay (Biorad Laboratories GmbH, München, Germany) according to the instructions of the manufacturer using gamma globulin as the standard.
This homogenate was stored at −80° C. in aliquots and thawed immediately prior to use.
Aliquots of membrane preparations were thawed at RT, resuspended in assay buffer (50 mM Tris-HCl, 120 mM NaCl, 5 mM MgCl2, 1 mM EDTA, 5 mM KCl, 1.5 mM CaCl2, pH=7.4), homogenized with a Polytron for 20-30 sec at 12.000 rpm and adjusted to a final concentration of approximately 7.5 μg protein/well.
The binding affinity (Ki) of the compounds was determined using radioligand binding. Membranes were incubated in a total volume of 200 μl with a fixed concentration of radioligand (final concentration approximately 0.5 nM [^3H]-spiperone) and ten concentrations of test compound in ranging between 10 μM-0.1 nM for 1 h at RT. At the end of the incubation, the reaction mixtures were filtered on to unifilter 96-well white microplates with bonded GF/C filters (Packard BioScience, Zurich, Switzerland; preincubated for 1 h in 0.1% polyethylenimine (PEI) in assay buffer) with a Filtermate 196 harvester (Packard BioScience) and washed 3 times with cold assay buffer. The nonspecific binding was determined with equally composed reaction mixtures in the presence of 10 μM unlabelled spiperone. Per well 45 μl of Microscint 40 (Perkin Elmer, Schwerzenbach, Switzerland) was added, plates for sealed, shaken for 20 min and counted for 3 min on a Topcount Microplate Scintillation Counter (Canberra Packard SA, Zürich, Switzerland) with quenching correction.
The CPM value for each duplicate of a concentration of competing compound was averaged (y1), then the % specific binding was calculated according to the equation (((y1−non-specific)/(total binding-non-specific))×100). Graphs were plotted with the % specific binding using XLfit, a curve fitting program that iteratively plots the data using Levenburg Marquardt algorithm. The single site competition analysis equation used was y=A+((B−A)/(1+((x/C)^D))), where y is the % specific binding, A is the minimum y, B is the maximum y, C is the IC50, x is the log10 of the concentration of the competing compound and D is the slope of the curve (the Hill Coefficient). From these curves the IC50 (inhibition concentration at which 50% specific binding of the radioligand was displaced) and Hill coefficient were determined. The affinity constant (Ki) was calculated using the Cheng-Prusoff equation Ki=(IC50/1+([L]/Kd), where [L] is the concentration of radioligand and Kd is the dissociation constant of the radioligand at the receptor as determined by the saturation isotherm.

pKi: −log10 of the molar value.

T1 sequence (P35462 whole entry): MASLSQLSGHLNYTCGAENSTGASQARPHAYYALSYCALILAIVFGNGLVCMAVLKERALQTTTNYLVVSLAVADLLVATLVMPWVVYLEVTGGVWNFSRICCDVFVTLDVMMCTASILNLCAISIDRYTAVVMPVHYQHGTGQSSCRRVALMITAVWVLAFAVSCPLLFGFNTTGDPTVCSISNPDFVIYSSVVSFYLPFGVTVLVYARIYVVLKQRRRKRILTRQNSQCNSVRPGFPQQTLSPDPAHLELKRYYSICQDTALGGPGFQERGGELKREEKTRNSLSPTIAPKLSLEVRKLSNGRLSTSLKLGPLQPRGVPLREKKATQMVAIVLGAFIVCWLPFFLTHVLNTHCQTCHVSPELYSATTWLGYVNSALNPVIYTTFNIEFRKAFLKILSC

Consider `COc1cccnc1N1CCN(CC[C@H]2CC[C@H](NC(C)=O)CC2)CC1` [Example 9, N-(trans-4-{2-[4-(3-Methoxy-pyridin-2-yl)-piperazin-1-yl]-ethyl}-cyclohexyl)-acetamide], for which the pKi is 7.99.

For `CC(=O)N[C@H]1CC[C@H](CCN2CCN(c3ncc(Cl)cc3Cl)CC2)CC1` [Example 6, N-(trans-4-{2-[4-(3,5-Dichloro-pyridin-2-yl)-piperazin-1-yl]-ethyl}-cyclohexyl)-acetamide], the negative-log Ki (pKi) was 8.02.

With `O=C(CC1CC1)N[C@H]1CC[C@H](CCN2CCN(c3ncc(C(F)(F)F)cc3Cl)CC2)CC1` [Example 4, N-(trans-4-{2-[4-(3-Chloro-5-trifluoromethyl-pyridin-2-yl)-piperazin-1-yl]-ethyl}-cyclohexyl)-2-cyclopropyl-acetamide], the pKi is 7.99.

Consider `CC(=O)N[C@H]1CC[C@H](CCN2CCN(c3ncccc3Cl)CC2)CC1` [Example 5, N-(trans-4-{2-[4-(3-Chloro-pyridin-2-yl)-piperazin-1-yl]-ethyl}-cyclohexyl)-acetamide], for which the negative logarithm of the Ki (pKi) was 8.77. To `CCC(=O)N[C@H]1CC[C@H](CCN2CCN(c3ncc(C(F)(F)F)cc3Cl)CC2)CC1` [Example 3, N-(trans-4-{2-[4-(3-Chloro-5-trifluoromethyl-pyridin-2-yl)-piperazin-1-yl]-ethyl}-cyclohexyl)-propionamide] belongs 7.78. As for `CC(=O)N[C@H]1CC[C@H](CCN2CCN(c3ccc(C(F)(F)F)nc3)CC2)CC1` [Example 7, N-(trans-4-{2-[4-(6-Trifluoromethyl-pyridin-3-yl)-piperazin-1-yl]-ethyl}-cyclohexyl)-acetamide], the negative logarithm of the Ki (pKi) is 8.25. The value for `CC(=O)N[C@H]1CC[C@H](CCN2CCN(c3ncc(C(F)(F)F)cc3Cl)CC2)CC1` [Example 1, N-(trans-4-{2-[4-(3-Chloro-5-trifluoromethyl-pyridin-2-yl)-piperazin-1-yl]-ethyl}-cyclohexyl)-acetamide] was 8.02; that for `NC(=O)CC(=O)N[C@H]1CC[C@H](CCN2CCN(c3ncc(C(F)(F)F)cc3Cl)CC2)CC1` [Example 8, N-(trans-4-{2-[4-(3-Chloro-5-trifluoromethyl-pyridin-2-yl)-piperazin-1-yl]-ethyl}-cyclohexyl)-malonamide] was 7.78; that for `COCCC(=O)N[C@H]1CC[C@H](CCN2CCN(c3ncc(C(F)(F)F)cc3Cl)CC2)CC1` [Example 2, N-(trans-4-{2-[4-(3-Chloro-5-trifluoromethyl-pyridin-2-yl)-piperazin-1-yl]-ethyl}-cyclohexyl)-3-methoxy-propionamide] was 8.25. Take `CC(=O)N[C@H]1CC[C@H](CCN2CCN(c3ccnc(Cl)c3Cl)CC2)CC1` [Example 10, N-(trans-4-{2-[4-(2,3-Dichloro-pyridin-4-yl)-piperazin-1-yl]-ethyl}-cyclohexyl)-acetamide]: the pKi is 8.77.
